Holding throughout (conditions): read-out: Ki app
One test has as its target Cathepsin S (Homo sapiens, UniProt P25774). Nature of the test: Inhibition of human cathepsin S.
The next test deals with Cathepsin B (Homo sapiens, UniProt P07858). The experiment in a line: Inhibition of human cathepsin B.
For the next test, the target named is T1, Cathepsin K (Homo sapiens, UniProt P43235).
T1 sequence (P43235 whole entry): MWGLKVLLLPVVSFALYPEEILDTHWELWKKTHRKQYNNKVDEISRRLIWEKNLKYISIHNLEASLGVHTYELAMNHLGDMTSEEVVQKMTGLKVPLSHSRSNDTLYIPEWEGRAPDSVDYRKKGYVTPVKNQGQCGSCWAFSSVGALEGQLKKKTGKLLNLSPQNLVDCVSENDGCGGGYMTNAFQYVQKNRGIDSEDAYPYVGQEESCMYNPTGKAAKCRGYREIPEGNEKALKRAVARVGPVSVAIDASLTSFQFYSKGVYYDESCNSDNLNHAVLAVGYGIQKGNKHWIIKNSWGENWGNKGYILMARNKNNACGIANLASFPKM
Nature of the test: Inhibition of human cathepsin K.

For a further test, the target named is Procathepsin L (Homo sapiens, UniProt P07711). The experiment in a line: Inhibition of human cathepsin L.

pKi: −log10 of the molar value.

The values that follow come from ChEMBL document CHEMBL1148670, “Keto-1,3,4-oxadiazoles as cathepsin K inhibitors” (Bioorg Med Chem Lett, 2006).

Chain of Procathepsin L (P07711 whole entry): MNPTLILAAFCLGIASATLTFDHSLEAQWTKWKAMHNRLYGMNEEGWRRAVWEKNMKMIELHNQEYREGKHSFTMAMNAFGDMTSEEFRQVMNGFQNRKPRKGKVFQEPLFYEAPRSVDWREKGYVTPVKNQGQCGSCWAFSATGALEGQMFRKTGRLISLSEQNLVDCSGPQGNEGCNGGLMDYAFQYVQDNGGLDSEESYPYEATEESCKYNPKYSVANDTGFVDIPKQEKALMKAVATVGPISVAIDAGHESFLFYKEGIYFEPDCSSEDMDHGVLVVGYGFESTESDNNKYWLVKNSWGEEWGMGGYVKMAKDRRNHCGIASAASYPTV
Chain of Cathepsin S (P25774 whole entry): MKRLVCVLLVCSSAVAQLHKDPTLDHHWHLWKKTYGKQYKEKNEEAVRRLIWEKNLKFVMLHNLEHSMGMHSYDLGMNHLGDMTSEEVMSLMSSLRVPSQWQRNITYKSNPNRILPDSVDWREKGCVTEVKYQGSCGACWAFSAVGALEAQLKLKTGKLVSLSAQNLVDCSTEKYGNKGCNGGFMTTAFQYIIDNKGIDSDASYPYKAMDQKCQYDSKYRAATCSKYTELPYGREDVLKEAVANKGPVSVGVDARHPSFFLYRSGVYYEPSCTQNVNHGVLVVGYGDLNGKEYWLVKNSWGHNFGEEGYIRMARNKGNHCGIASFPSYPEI

On to `CCC[C@H](NC(=O)OCC(C)C)C(=O)c1nnc(-c2ccco2)o1`, for which the negative logarithm of the Ki (pKi) (in general, the negative decadic logarithm of the Ki, by convention in mol/L) is 6.42 at Cathepsin S, 4.80 at Cathepsin B, 6.30 on Cathepsin K and 4.85 at Procathepsin L.
As for `CCC[C@H](NC(=O)CCc1ccccc1)C(=O)c1nnc(-c2ccco2)o1`, the negative-log Ki (pKi) is 5.59 on Cathepsin S, 4.60 at Cathepsin B, 5.02 on Cathepsin K and 4.00 at Procathepsin L.
On the same counts, the results for `CCC[C@H](NC(=O)C1(NC(=O)c2ccc(N(C)C)cc2)CCCCC1)C(=O)c1nnc(-c2ccco2)o1` are 6.15, 6.14, 9.02 and 6.02.
On the same counts, the results for `CCC[C@H](NC(=O)C1(NC(=O)c2ccc(OC(F)(F)F)cc2)CCCCC1)C(=O)c1nnc(C(C)(C)C)o1` are 4.77, 5.00, 5.89 and 5.00.
The like results for `CCC[C@H](NC(=O)[C@H](CC(C)C)C(=O)OCc1ccccc1)C(=O)c1nnc(-c2ccco2)o1` were, in that order, more than 9.60, 8.70, more than 9.60 and 9.00.
In the case of `CCC[C@H](NC(=O)C1(NC(=O)c2ccc(OC(F)(F)F)cc2)CCCCC1)C(=O)c1nnc(-c2ccccc2)o1`, the negative-log Ki (pKi) was 4.35 on Cathepsin S, 4.14 on Cathepsin B, 7.54 on Cathepsin K and 4.72 on Procathepsin L.
The like results for `CCC[C@H](NC(=O)C1(NC(=O)c2ccc(OC(F)(F)F)cc2)CCCCC1)C(=O)c1nnc(-c2cccc(C(F)(F)F)c2)o1` were, in that order, 5.48, 5.96, 7.27 and 5.85.
On the same counts, the results for `CCC[C@H](NC(=O)C1(NC(=O)c2ccc(OC(F)(F)F)cc2)CCCCC1)C(=O)c1nnc(CC)o1` are 6.33, 7.01, 8.10 and 6.52.
On the same counts, the results for `CCC[C@H](NC(=O)OC(C)(C)C)C(=O)c1nnc(-c2cccs2)o1` are 4.92, 3.92, 6.09 and 4.20.
Turning to `CCC[C@H](NC(=O)C1(NC(=O)OC(C)(C)C)CCCCC1)C(=O)c1nnc(-c2ccco2)o1`, the negative-log Ki (pKi) is 6.02 on Cathepsin S, 5.14 on Cathepsin B, 7.37 on Cathepsin K and 4.74 at Procathepsin L.
Turning to `CCC[C@H](NC(=O)OC(C)(C)C)C(=O)c1nnc(-c2ccccc2OC)o1`, the negative logarithm of the Ki (pKi) at Cathepsin S is 4.72; on Cathepsin B, less than 3.82; on Cathepsin K, 4.77; at Procathepsin L, less than 3.82.
In the case of `CCC[C@H](NC(=O)OC(C)(C)C)C(=O)c1nnc(-c2ccc(N(C)C)cc2)o1`, the negative logarithm of the Ki (pKi) at Cathepsin S was 4.55; at Cathepsin B it was less than 3.82; at Cathepsin K it was 4.48; on Procathepsin L it was 3.89.
The like results for `CCC[C@H](NC(=O)OCc1ccccc1)C(=O)c1nnc(-c2ccco2)o1` were, in that order, 5.70, 4.47, 5.52 and 4.55.
For `CCC[C@H](NC(=O)[C@H](CC(C)C)NCC(F)(F)F)C(=O)c1nnc(-c2ccco2)o1`, the negative-log Ki (pKi) is 6.62 at Cathepsin S, 4.32 on Cathepsin B, 6.92 on Cathepsin K and 5.68 at Procathepsin L.
For the compound `CCC[C@H](NC(=O)C1(NC(=O)c2ccc(OC(F)(F)F)cc2)CCCCC1)C(=O)c1nnc(-c2ccco2)o1`, the pKi at Cathepsin S was 6.46; on Cathepsin B, 6.66; on Cathepsin K it was 8.77; at Procathepsin L, 6.00.
For the compound `CCC[C@H](NC(=O)C1(NC(=O)c2ccc(F)cc2)CCCCC1)C(=O)c1nnc(-c2ccco2)o1`, the pKi was 6.85 on Cathepsin S, 6.02 on Cathepsin B, 7.72 on Cathepsin K and 5.54 on Procathepsin L.
As for `CCC[C@H](NC(=O)C1(NC(=O)c2ccc(OC(F)(F)F)cc2)CCCCC1)C(=O)c1nnc(-c2ccc(C(F)(F)F)cc2)o1`, the negative logarithm of the Ki (pKi) at Cathepsin S is 4.89; at Cathepsin B, 4.64; on Cathepsin K, 6.26; on Procathepsin L it was 4.96.
With `CCC[C@H](NC(=O)Cc1ccccc1)C(=O)c1nnc(-c2ccco2)o1`, the negative-log Ki (pKi) was 5.04 on Cathepsin S, 3.96 at Cathepsin B, 4.28 at Cathepsin K and 3.82 at Procathepsin L.
Take `CCC[C@H](NC(=O)OC(C)(C)C)C(=O)c1nnc(C(C)C)o1`: the pKi is 3.89 at Cathepsin S, less than 3.82 on Cathepsin B, 5.25 on Cathepsin K and less than 3.82 on Procathepsin L.
In the case of `CCC[C@H](NC(=O)C1(NC(=O)c2ccc(OC(F)(F)F)cc2)CCCCC1)C(=O)c1nnc(OC)o1`, the negative logarithm of the Ki (pKi) is 6.49 on Cathepsin S, 7.03 at Cathepsin B, 8.48 at Cathepsin K and 6.80 on Procathepsin L.
`CCC[C@H](NC(=O)C1(NC(=O)c2ccc(OC(F)(F)F)cc2)CCCCC1)C(=O)c1nnc(-c2cccs2)o1`: the pKi on Cathepsin S is 6.12; on Cathepsin B it was 6.57; on Cathepsin K, 8.28; at Procathepsin L it was 5.54.
The like results for `CCC[C@H](NC(=O)C1(NC(=O)c2ccc(OC(F)(F)F)cc2)CCCCC1)C(=O)c1nnc(C(C)C)o1` were, in that order, 6.10, 6.37, 7.46 and 5.34.
In the case of `CCC[C@H](NC(=O)C1(NC(=O)c2ccc(OC(F)(F)F)cc2)CCCCC1)C(=O)c1nnc(-c2cccc(OC)c2)o1`, the pKi on Cathepsin S is 5.00; on Cathepsin B it was 5.68; at Cathepsin K, 7.43; on Procathepsin L, 5.12.
For `CCC[C@H](NC(=O)C1(NC(=O)c2ccc(OC(F)(F)F)cc2)CCCCC1)C(=O)c1nnc(-c2ccc(OC)cc2)o1`, the negative logarithm of the Ki (pKi) was 4.70 on Cathepsin S, 4.24 at Cathepsin B, 7.66 on Cathepsin K and 4.43 at Procathepsin L.
